US20040219600A1, “Method for determining sensitivity to environmental toxins and susceptibility to parkinson's disease” (priority 2002, published 2004)

Key:
[1] = test system: glutathione S-transferase pi2 (GSTp2) mRNA; experiment: Real time PCR of GSTp2 mRNA in substantia nigra after MPTP; assay type: in vivo, mouse; settings: for expression of GSTp2: C57B1/6 mice; for GSTp2 levels: SW mice
Text: Using real time PCR technology we are able to measure relative or absolute mRNA levels in from very small sample pools. The RT-PCR reaction includes a forward primer, a primer with a fluorescent 5′ reporter dye and a 3′ quencher dye, and a reverse primer, constructed to hybridize with the target of interest. The 5′ to 3′ activity of the DNA polymerase cleaves the primer between the reporter and the quencher only if the primer hybridizes to the target. The primer is then displaced from the target, polymerization of the strand continues, and the produce accumulates with each cycle. The exponential amplification of product correlates with the initial number of target molecules when normalized to an endogenous reference, and the threshold cycle calculated (a cycle during which there is an exponential accumulation of produce occurring), as long as the efficiency of the target amplification and the efficiency of the reference amplification are approximately equal. To examine the mRNA expression levels of GSTp2, we used real time PCR analysis to examine baseline levels in C57B1/6 and SW mice. […] The expression pattern in SW mice is different.
Higuchi et al (Higuchi R, et al., Simultaneous Amplification and Detection of Specific DNA Sequences, Biotech. (NY) 10:413-17 (1992)) pioneered the analysis of PCR kinetics by constructing a system that detects PCR products as they accumulate. This “real-time” system includes the intercalator ethidium bromide in each amplification reaction, an adapted thermal cycler to irradiate the samples with ultraviolet light, and detection of the resulting fluorescence with a computer-controlled cooled CCD camera. mRNA amplification produces increasing amounts of double-stranded DNA, which binds ethidium bromide, resulting in an increase in fluorescence. By plotting the increase in fluorescence versus cycle number, this method allows one to make precise quantitative measurements of mRNA expression. […]
Higuchi et al (Higuchi R, et al., Simultaneous Amplification and Detection of Specific DNA Sequences, Biotechnology (N Y) 10:413-17 (1992)) pioneered the analysis of PCR kinetics by constructing a system that detects PCR products as they accumulate. This “real-time” system includes the intercalator ethidium bromide in each amplification reaction, an adapted thermal cycler to irradiate the samples with ultraviolet light, and detection of the resulting fluorescence with a computer-controlled cooled CCD camera. Amplification produces increasing amounts of double-stranded DNA, which binds ethidium bromide, resulting in an increase in fluorescence. By plotting the increase in fluorescence versus cycle number, this method […] allows one to make precise quantitative measurements of mRNA expression.
We will be quantitating levels of glutathione S-transferase pi2 mRNA using this technique in place of traditional Northern blots since we have a limited amount of material to generate mRNA and real-time PCR amplification can give precise results with a small amount of sample material. […] Quantitative measurements are made based on the amount of fluorescence detected by amplification of the intervening primer. Details of this method are presented in numerous papers such as (Freeman W M, et al., Quantitative RT-PCR: Pitfalls and Potential. Biotechniques 26:112-122, 124-115 (1999)) as well as from the ABI website. […]

[2] = test system: postnatal substantia nigra (SN) neurons; experiment: MPTP-induced cell loss in postnatal substantia nigra cultures; assay type: cell-based, mouse; settings: for loss of T-positive neurons: MPTP 50×10-9
[3] = test system: embryonic midbrain neurons; settings: C57B1/6 and Swiss-Webster cultures from embryonic midbrain; cited from earlier work
SNpc neurons = experiment: Count of TH-positive SNpc cells one week after subcutaneous MPTP; settings: 80 mg/kg MPTP SC (4 x 20 mg/kg)
Experimental: C57BL/6J (Jackson Laboratory), Swiss-Webster (SWR, Harlan) and C57BL/6J×SWR used in these experiments were between 3 and 5 months of age. […] All animals were generated within our vivarium at St. Jude Children's Hospital and were maintained on a 12:12 hour light: dark cycle with ad libitum food and water. Animals were treated in accord with Animal Care and Use Committee requirements. The analysis presented here is based on neuroanatomical and morphometric data from 58 animals, all of which were genotyped as described below.
Each animal was given a total of 80 mg/kg of MPTP, using a dosage regimen of 4 equal subcutaneous injections of 20 mg/kg, one given every 2 hours. Mice were monitored over the next 24 hours for the degree of mortality and the presence of seizures. […]
Prior to counting TH-positive cells, the rostral to caudal boundaries of the SNpc were identified (German, D. C., et al., The Neurotoxin MPTP Causes Degeneration of Specific Nucleus A8, A9 and A10 Dopaminergic Neurons in the Mouse, Neurodegeneration, 5:299-312 (1996)). […] TH-positive cells within the SNpc in one section per slide were counted using a 20× objective (total magnification 200×). […] The number of cells in the SNpc from several animals were also counted using unbiased stereological measurements using the Bioquant image analysis system (R & 1 Biometrics, Nashville, Tenn.).

CN1CC=C(c2ccccc2)CC1 [MPTP, 1-methyl-4-phenyl-1,2,3,6-tetrahydropyridine]
expression of GSTp2 ([1]; 24 hours after MPTP): 50%
expression of GSTp2 ([1]; eight hours after the first injection of MPTP): increases
GSTp2 levels ([1]; 8 hours after administration of MPTP): decrease
GSTp2 levels ([1]; 24 hours after MPTP): return to baseline levels
lower induction of glutathione S-transferase pi2 in C57B1/6 mice compared to Swiss-Webster ([1]; forty eight hours after MPTP administration): 50%
loss of T-positive neurons ([2]; SN cultures derived from SWR mice): 10±3%
loss of T-positive neurons ([2]; SN cultures from C57B1/6 mice): 50±5%
percent cell loss in vitro as fraction of the in vivo value ([2]; in vitro SN culture versus in vivo): approximately 80%
cell death [3]: little cell death
number of SNpc neurons following MPTP treatment (SNpc neurons; C57B1/6 animals): 3300±200
number of SNpc neurons following MPTP treatment (SNpc neurons; SWR animals): 5480+/−239
